# Measured values taken from patent publication US8765675B2, “Use of calcitonin in osteoarthritis” (Novartis AG, priority 2003, dated 2014).
# Where no end group is shown, it is not given here.
# How the values were obtained:
# [1] = Water solubility of delivery agent
# [2] = in vivo
# cartilage = settings: cited from earlier work
# [3] = system: animal epiphyseal cartilage, rabbit and human cartilage; settings: in vitro; cited from earlier work
# [4] = system: urinary C-terminal telopeptide of collagen type I (CTX-I); assay: 3-month oral sCT treatment, 24 hours urinary CTX-I corrected for creatinine; type: in vivo, human; settings: 1.0 mg sCT daily oral, 3-month treatment, compared to placebo group, p<0.001
# Description: (§1) Women receive treatment with either daily (0.15, 0.4, 1.0, or 2.5 mg) orally dosed sCT (see below for pharmaceutical compositions) combined with eligen technology-based carrier molecule (200 mg), or placebo for 3 months. All participants receive a calcium supplement of 1000 mg plus 400 IU of vitamin D daily throughout the study. Efficacy parameters are 24 hours urinary C-terminal telopeptide of collagen type I (CTX-I) and CTX-II corrected for creatinine excretion assessed at baseline and after 3-month therapy.
# (§2) C-telopeptide of type I collagen (CTX I) is considered to be a specific marker sensitive to bone resorption; conversely, type II collagen C-telopeptide (CTX-II) is considered to be a useful cartilage marker.
# [5] = system: urinary collagen type II degradation products (CTX-II); assay: 3-month oral sCT treatment, 24 hours urinary CTX-II corrected for creatinine; type: in vivo, human
# Description: as §1, §2
compound,measurement,setting,value
"O=C(O)CCCCCCCNC(=O)c1cc(Cl)ccc1O [5 CNAC, N-(5-chlorosalicyloyl)-8-aminocaprylic acid]",water solubility,[1],very water soluble
"O=C(O)CCCCCCCCCNC(=O)c1ccccc1O [SNAD, N-(10-[2-hydroxybenzoyl]amino)decanoic acid]",absorbed by the gastro-intestinal tract,[2],more than 90%
"calcitonin (CGNLSTCMLGTYTQDFNKFHTFPQTAIGVGAP; ends and bridges not checked; cysteine pairing not given here; UniProt P01258 85-116, looked up) [origin not specified in cited studies]",effect on cartilage,cartilage; another menisectomy model (Colombo 1983),no effect on cartilage
same,effect on cartilage destruction,"cartilage; rabbits treated with steroids, partial menisectomy or joint immobilization (Badurski 1991)",prevent cartilage destruction
same,effect on proteoglycan and collagen synthesis in cartilage,[3],stimulate proteoglycan and collagen synthesis
salmon calcitonin [sCT],reduction in 24-hours urinary CTX-I,[4],−41.0%
same,decrease in urinary CTX-II after 3-month treatment,"[5]; 0.4 mg sCT daily oral, postmenopausal women, compared to placebo, p=0.04",−15.2%
same,decrease in urinary CTX-II after 3-month treatment,"[5]; 1.0 mg sCT daily oral, postmenopausal women, compared to placebo, p=0.009",−19.7%
same,decrease in urinary CTX-II after 3-month treatment,"[5]; 1.0 mg sCT, women in the highest tertile of baseline urinary CTX-II",−36.6%
same,decrease in urinary CTX-II after 3-month treatment,"[5]; 1.0 mg sCT, women in the lowest tertile of baseline urinary CTX-II",−9.9%
same,decrease in urinary CTX-II after 3-month treatment,"[5]; 2.5 mg sCT daily oral, postmenopausal women, compared to placebo, p=0.02",−17.5%
same,"24 hours urinary CTX-II response to oral sCT, dose relationship","[5]; 0.15, 0.4, 1.0, 2.5 mg daily, 3 months, ANOVA=0.012",clear and significant dose dependent relationship
